# Measurements published in ChEMBL document CHEMBL1158229, “Two new lignans, interiotherins A and B, as anti-HIV principles from Kadsura interior” (J Nat Prod, 1996).
# Key:
# [1] = Therapeutic index, ratio of IC50 for mock-infected human H9 cells to EC50 for HIV1 3B; format: cell-based; conditions: for selectivity ratio: read-out: TI; for Activity: h9
# [2] = system: H9; assay: Cytotoxicity against mock-infected human H9 cells after 4 days; format: cell-based; conditions: h9, 96 h
Compound,selectivity ratio [1],Activity [1],Activity [2]
COc1c2c(cc3c1-c1c(cc4c(c1OC)OCO4)[C@H](OC(=O)c1ccccc1)[C@@](C)(O)[C@@H](C)C3)OCO2 [SCHISANTHERIN D],50.6,,
Cc1cn([C@H]2C[C@H](N=[N+]=[N-])[C@@H](CO)O2)c(=O)[nH]c1=O [ZIDOVUDINE],250000,,
C/C=C(/C)C(=O)O[C@H]1c2cc3c(c(OC)c2-c2c(cc4c(c2OC)OCO4)C[C@H](C)[C@@H]1C)OCO3 [ANGELOYLGOMISIN R],,Active,Not Active
C/C=C(/C)C(=O)O[C@H]1c2cc3c(c(OC)c2-c2c(cc4c(c2OC)OCO4)C[C@H](C)[C@]1(C)O)OCO3 [INTERIOTHERIN B],,Active,Not Active
COc1c2c(cc3c1-c1c(cc4c(c1OC)OCO4)[C@H](OC(=O)c1ccccc1)[C@@H](C)[C@@H](C)C3)OCO2 [INTERIOTHERIN A],13.2,,
